Experimental findings from US8003658B2, “Quinazoline derivatives for inhibiting cancer cell growth and method for the preparation thereof” (Hanmi Holdings Co., Ltd., priority 2004, dated 2011) are described below.

Test [1] concerns SK-Br3 (ATCC: HTB-30). As to the kind of experiment: Test of cancer cell growth inhibition (SRB), SK-Br3. As to conditions: read-out: IC50 SK-Br-3.
Test [2] concerns the target EGFR (EGFR type 1 kinase) (Homo sapiens, UniProt P00533). As to the kind of experiment: Inhibition of EGFR enzyme (fluorescence polarization kinase assay). On the technique in general: Fluorescence polarisation rises when a labelled molecule tumbles more slowly, as on binding a larger partner.
Method: 10 μl of EGFR (EGFR type 1 kinase) was added to each well of a 96-well microplate.
The subject of test [3] is A431 (ATCC: CRL-1555). The test can be described thus: Test of cancer cell growth inhibition (SRB), A431. The note with it: read-out: IC50 A431.
The subject of test [4] is SW-620 (ATCC: CCL-227). As to the kind of experiment: Test of cancer cell growth inhibition (SRB), SW-620. As to conditions: Homo sapiens, SW-620, 72 h, read-out: IC50 SW-620.
Setting [5] is: EGFR overexpressed A431, 72 hours, SRB.
The mark [6] stands for this setting: Erb-B2 overexpressed SK-Br3, 72 hours, SRB.
[7] abbreviates: read-out: IC50 EGFR, Poly (Glu, Tyr) 4:1 and ATP, 1 hour room temperature, FP readout.

As a reminder, the IC50 is the concentration that inhibits the measured activity by half.

Read-outs that look alike come from different tables or passages of the source.

Regarding `C=CC(=O)N[C@H](C)C(=O)Nc1cc2c(Nc3ccc(OCc4ccccn4)c(Cl)c3)ncnc2cc1OCCOC` [Example 208, (1R)—N-(1-{4-[3-chloro-4-(pyridin-2-ylmethoxy)-phenylamino]-7-(2-methoxy-ethoxy)-quinazolin-6-ylcarbamoyl}-ethyl)-acrylamide], the IC50 in test [1] (Homo sapiens, SK-BR-3, 72 h) was determined as 3 nM; in test [2], 2 nM; in test [3] (Homo sapiens, A-431, 72 h) it was 11 nM.
For `C=CC(=O)N1CCC[C@H]1C(=O)Nc1ccc2ncnc(Nc3ccc(OCc4ccccn4)c(Cl)c3)c2c1` [Example 145, (2S)-1-acryloyl-pyrrolidine-2-carboxylic acid {4-[3-chloro-4-(pyridin-2-ylmethoxy)-phenylamino]-quinazolin-6-yl}-amide], the IC50 amounted to 25 nM in test [1] (Homo sapiens, SK-BR-3, 72 h); 4 nM in test [2]; 32 nM in test [3] (setting [5]).
In the case of `C=CC(=O)NCC(=O)Nc1cc2c(Nc3ccc(OCc4ccccn4)c(Cl)c3)ncnc2cc1OCCOC` [Example 218, N-({4-[3-chloro-4-(pyridin-2-ylmethoxy)-phenylamino]-7-(2-methoxyethoxy)-quinazolin-6-ylcarbamoyl}-methyl)-acrylamide], the IC50 in test [1] (Homo sapiens, SK-BR-3, 72 h) turned out to be 4 nM; in test [2], 2 nM; in test [3] (Homo sapiens, A-431, 72 h) it was 16 nM.
Take `C=CC(=O)NCC(=O)Nc1cc2c(Nc3ccc(OCc4cccc(F)c4)c(Cl)c3)ncnc2cc1OC` [Example 211, N-({4-[3-chloro-4-(3-fluoro-benzyloxy)-phenylamino]-7-methoxy-quinazolin-6-ylcarbamoyl}-methyl)-acrylamide]: the IC50 was determined as 6 nM in test [1] (Homo sapiens, SK-BR-3, 72 h); 2 nM in test [2]; 16 nM in test [3] (Homo sapiens, A-431, 72 h).
In the case of `C=CC(=O)NCC(=O)Nc1cc2c(Nc3ccc(OCc4cccc(F)c4)c(Cl)c3)ncnc2cc1OCCOC` [Example 217, N-({4-[3-chloro-4-(3-fluoro-benzyloxy)-phenylamino]-7-(2-methoxyethoxy)-quinazolin-6-ylcarbamoyl}-methyl)-acrylamide], the IC50 in test [1] (Homo sapiens, SK-BR-3, 72 h) turned out to be 3 nM; in test [2], 2 nM; in test [3] (Homo sapiens, A-431, 72 h) it was 14 nM.
On the same counts, the results for `C=CC(=O)N(C)CCC(=O)Nc1ccc2ncnc(Nc3ccc(OCc4ccccn4)c(Cl)c3)c2c1` [Example 143, N-(2-{4-[3-chloro-4-(pyridin-2-ylmethoxy)-phenylamino]-quinazolin-6-ylcarbamoyl}-ethyl)-N-methyl-acrylamide] are 2 nM, 1 nM and 10 nM.
Regarding `C=CC(=O)NCCC(=O)Nc1ccc2ncnc(Nc3ccc(OCc4ccccn4)c(Cl)c3)c2c1` [Example 131, N-(2-{4-[3-chloro-4-(pyridin-2-ylmethoxy)-phenylamino]-quinazolin-6-ylcarbamoyl}-ethyl)-acrylamide], the IC50 in test [1] (Homo sapiens, SK-BR-3, 72 h) stood at 3 nM; in test [2], 4 nM; in test [3] (Homo sapiens, A-431, 72 h) it was 37 nM.
For `CC#CC(=O)N1CCC[C@H]1C(=O)Nc1cc2c(Nc3ccc(OCc4ccccn4)c(Cl)c3)ncnc2cc1OC` [Example 146, (2S)-1-(1-oxo-butyn-2-yl)-pyrrolidine-2-carboxylic acid {4-[3-chloro-4-(pyridin-2-ylmethoxy)-phenylamino]-7-methoxy-quinazolin-6-yl}-amide], the IC50 turned out to be 40 nM in test [1] (setting [6]), 4 nM in test [2] (setting [7]) and 32 nM in test [3] (setting [5]).
For “(1S)—N-(1-{4-[3-chloro-4-(pyridin-2-ylmethoxy)-phenylamino]-7-methoxy-quinazolin-6-ylcarbamoyl}-ethyl)-acrylamide [Example 216]”, the IC50 in test [1] (setting [6]) turned out to be 8 nM; in test [2] (setting [7]), 2 nM; in test [3] (setting [5]), 13 nM.
Consider `C=CC(=O)NCCC(=O)Nc1ccc2ncnc(Nc3ccc(OCc4cccc(F)c4)c(Cl)c3)c2c1` [Example 22, N-(2-{4-[3-chloro-4-(3-fluoro-benzyloxy)-phenylamino]-quinazolin-6-ylcarbamoyl}-ethyl)-acrylamide], for which the IC50 in test [1] (Homo sapiens, SK-BR-3, 72 h) is 3 nM; in test [4], above 10000 nM; in test [2], 3 nM; in test [3] (Homo sapiens, A-431, 72 h) it was 58 nM.
Regarding `C=CC(=O)N1CCC[C@H]1C(=O)Nc1cc2c(Nc3ccc(OCc4ccccn4)c(Cl)c3)ncnc2cc1OC` [Example 166, (2S)-1-acryloyl-pyrrolidine-2-carboxylic acid {4-[3-chloro-4-(pyridin-2-ylmethoxy)-phenylamino]-7-methoxy-quinazolin-6-yl}-amide], the IC50 in test [1] (setting [6]) came to 3 nM; in test [2], 3 nM; in test [3] (setting [5]) it was 27 nM.
Regarding `C=CC(=O)NCCC(=O)N(C)c1ccc2ncnc(Nc3ccc(OCc4cccc(F)c4)c(Cl)c3)c2c1` [Example 139-5, N-[2-({4-[3-chloro-4-(3-fluoro-benzyloxy)-phenylamino]-quinazolin-6-yl}-methyl-carbamoyl)-ethyl]-acrylamide], the IC50 in test [1] (Homo sapiens, SK-BR-3, 72 h) worked out at 47 nM; in test [2] it was 5 nM; in test [3] (Homo sapiens, A-431, 72 h), 69 nM.
As for `C=CC(=O)N1CCC[C@H]1C(=O)Nc1ccc2ncnc(Nc3ccc(OCc4cccc(C)n4)c(Cl)c3)c2c1` [Example 147, (2S)-1-acryloyl-pyrrolidine-2-carboxylic acid {4-[3-chloro-4-(6-methyl-pyridin-2-ylmethoxy)-phenylamino]-quinazolin-6-yl}-amide], the IC50 in test [1] (Homo sapiens, SK-BR-3, 72 h) was 19 nM; in test [2], 2 nM; in test [3] (Homo sapiens, A-431, 72 h) it was 21 nM.
Regarding `C=CC(=O)N[C@H](C)C(=O)Nc1cc2c(Nc3ccc(OCc4ccccn4)c(Cl)c3)ncnc2cc1OC` [Example 189, (1R)—N-(1-{4-[3-chloro-4-(pyridin-2-ylmethoxy)-phenylamino]-7-methoxy-quinazolin-6-ylcarbamoyl}-ethyl)-acrylamide], the IC50 worked out at 2 nM in test [1] (Homo sapiens, SK-BR-3, 72 h); 1 nM in test [2]; 9 nM in test [3] (Homo sapiens, A-431, 72 h).
As for `C=CC(=O)NCCC(=O)Nc1cc2c(Nc3ccc(OCc4ccccn4)c(Cl)c3)ncnc2cc1OC` [Example 167, N-(2-{4-[3-chloro-4-(pyridin-2-ylmethoxy)-phenylamino]-7-methoxy-quinazolin-6-ylcarbamoyl}-ethyl)-acrylamide], the IC50 in test [1] (Homo sapiens, SK-BR-3, 72 h) was found to be 4 nM; in test [2], 2 nM; in test [3] (Homo sapiens, A-431, 72 h), 17 nM.
Taken in the same sequence, the figures for `C=CC(=O)N(C)CCC(=O)Nc1ccc2ncnc(Nc3ccc(OCc4cccc(F)c4)c(Cl)c3)c2c1` [Example 142-2, N-(2-{4-[3-chloro-4-(3-fluoro-benzyloxy)-phenylamino]-quinazolin-6-ylcarbamoyl}-ethyl)-N-methyl-acrylamide] were 4 nM, 2 nM and 19 nM.
